According to patent publication US10111833B2, “Sildenafil sublingual spray formulations” (Insys Development Company, Inc., priority 2015, dated 2018):

Assays:
[1] = Impurity formation / standard stability testing (clarity, color, pH, assay, impurities); assay type: physicochemical; settings: Drug Substance
From the text: In order to further determine the stability of Formulations 1, 3A, 3B, 5A, 5B, 5C, 5D and 5E, the formulations were subjected to standard stability testing to determine impurity levels. The results are below in Tables 7-11.

[2] = Freeze/thaw stability testing; assay type: physicochemical; settings: Drug Substance
From the text: The results are below in Tables 13-18.

- Assay (% of initial Conc) [1]: 100.70%
- Total Impurities [1]: 0.00%
- Physical appearance ([1]; first line of cell (clarity)): clear,
- Physical appearance ([1]; second line of cell (color)): colorless
- Color [2]: colorless
- Physical appearance [2]: clear
Structure (SMILES): CCCc1nn(C)c2c(=O)[nH]c(-c3cc(S(=O)(=O)N4CCN(C)CC4)ccc3OCC)nc12 [Drug Substance, Sildenafil base]
- Impurity A [1]: BQL (BQL = Below Quantification Limit (Limit of Quantification = 0.05%))
- Impurity B [1]: ND (ND = Not Detected (Limit of Detection = 0.01%))
- Impurity C [1]: BQL (BQL = Below Quantification Limit (Limit of Quantification = 0.05%))
- Impurity D [1]: BQL (BQL = Below Quantification Limit (Limit of Quantification = 0.05%))
- Unknown Impurity RRT 0.24 [1]: ND (ND = Not Detected (Limit of Detection = 0.01%))
- Unknown Impurity RRT 0.61 [1]: ND (ND = Not Detected (Limit of Detection = 0.01%))
